Laboratory results: patent publication US20230125482A1, “PROTEIN KINASE C MODULATORS” (Young Therapeutics, LLC, priority 2020, published 2023)
Where a SMILES comes first, the peptide text is derived from it. The star is where a group is joined. Myristoyl = CCCCCCCCCCCCCC(=O)*

Assays:
Solubility of peptide = format: physicochemical
isolated rat hearts = assay: Myocardial ischemia/reperfusion (I/R) injury in isolated rat hearts (Langendorff, ex vivo); conditions: for Final Coronary Flow / Final Heart Rate / Final LVDP / Final LVEDP / Final LVESP / Final dP/dtmax / Final dP/dtmin: 50 min post-reperfusion; for Infarct Size: I(30 min)/R(50 min), infarct tissue weight/total tissue weight; for Initial Coronary Flow / Initial Heart Rate / Initial LVDP / Initial LVEDP / Initial LVESP / Initial dP/dtmax / Initial dP/dtmin: baseline before ischemia
Procedure: Rat hearts were isolated from anesthetized male Sprague Dawley rats (275-325 g), placed in ice-cold Krebs' buffer, and placed onto a Langendorff heart apparatus and retro perfused with Krebs' buffer at a constant pressure of 80 mmHg (FIG. 1). A pressure transducer measures heart rate, left ventricular end-systolic pressure, end-diastolic pressure, dP/dt max, and dP/dt min. Coronary flow is measured via a flow probe connected to the perfusion tubing. Cardiac function was recorded throughout the experimental protocol using a pressure transducer inserted into the left ventricle (15 min baseline; global I(30 min)/R(50 min)). Selected peptides of TABLE 1 or vehicle (control [0.05 to 0.2% Dimethylsulfoxide) were given during the first 5 min of reperfusion. All peptide inhibitors or activators were dissolved in 28% DMSO and the final concentration of DMSO with peptides or without peptides (control I/R hearts) delivered to all hearts was 0.06%. Statistical analysis was performed using ANOVA and Bonferroni-Dunn post-hoc test.
At the end of the experimental protocol, hearts were removed from the Langendorff apparatus, and frozen for 30 min at −20° C. Hearts were sectioned (2 mm) from base to apex and placed in 1% TTC for ˜10 min at 37° C. Viable tissue stained red and infarcted tissue was unstained (pale). Total tissue sections were weighed and infarcted tissue was separated from viable tissue and weighed to determine infarct size (i.e. infarct tissue weight/total tissue weight).

With `CCCCCCCCCCCCCC(=O)N[C@@H](Cc1ccc(O)cc1)C(=O)NCC(=O)N[C@@H](CCCNC(=N)N)C(=O)N[C@@H](CCCCN)C(=O)N[C@@H](CCCCN)C(=O)N[C@@H](CCCNC(=N)N)C(=O)N[C@@H](CCCNC(=N)N)C(=O)N[C@@H](CCC(N)=O)C(=O)N[C@@H](CCCNC(=N)N)C(=O)N[C@@H](CCCNC(=N)N)C(=O)N[C@@H](CCCNC(=N)N)C(=O)N[C@@H](CS)C(=O)N[C@@H](CS)C(=O)N[C@@H](CCC(=O)O)C(=O)N[C@@H](C)C(=O)N[C@H](C(=O)N[C@@H](CO)C(=O)N[C@@H](CC(C)C)C(=O)N[C@@H](CCCCN)C(=O)N1CCC[C@H]1C(=O)N[C@H](C(=O)O)[C@@H](C)O)C(C)C` [Myr + TAT + PKCε-] (Myristoyl-YGRKKRRQRRRCCEAVSLKPT-OH; C-terminus assumed) the solubility (Solubility of peptide) was no more than 100 mM, the “Final Coronary Flow” value (isolated rat hearts; 100 pM) was 10 ± 1 mL/min and the “Final Heart Rate” value (isolated rat hearts; 100 pM) was 252 ± 8 BPM. For the same molecule, the “Final LVDP” value (isolated rat hearts; 100 pM) was 47 ± 11 mmHg, the “Final LVEDP” value (isolated rat hearts; 100 pM) was 47 ± 10 mmHg and the “Final LVESP” value (isolated rat hearts; 100 pM) was 94 ± 14 mmHg. The “Final dP/dtmax” value (isolated rat hearts; 100 pM) was 1021 ± 246 mmHg/s, the “Final dP/dtmin” value (isolated rat hearts; 100 pM) was −688 ± 142 mmHg/s and the “Infarct Size” value (isolated rat hearts; 100 pM) was 18 ± 1%. For the same molecule, the “Initial Coronary Flow” value (isolated rat hearts; 100 pM) was 18 ± 2 mL/min, the “Initial Heart Rate” value (isolated rat hearts; 100 pM) was 285 ± 6 BPM and the “Initial LVDP” value (isolated rat hearts; 100 pM) was 89 ± 3 mmHg. For the same molecule, the “Initial LVEDP” value (isolated rat hearts; 100 pM) was 10 ± 0.4 mmHg, the “Initial LVESP” value (isolated rat hearts; 100 pM) was 100 ± 3 mmHg and the “Initial dP/dtmax” value (isolated rat hearts; 100 pM) was 2457 ± 37 mmHg/s. The “Initial dP/dtmin” value (isolated rat hearts; 100 pM) was −1726 ± 49 mmHg/s, the “Final Coronary Flow” value (isolated rat hearts; 1 nM) was 10 ± 1 mL/min and the “Final Heart Rate” value (isolated rat hearts; 1 nM) was 266 ± 6 BPM. For the same molecule, the “Final LVDP” value (isolated rat hearts; 1 nM) was 49 ± 8 mmHg, the “Final LVEDP” value (isolated rat hearts; 1 nM) was 52 ± 9 mmHg and the “Final LVESP” value (isolated rat hearts; 1 nM) was 101 ± 9 mmHg. For the same molecule, the “Final dP/dtmax” value (isolated rat hearts; 1 nM) was 1147 ± 156 mmHg/s, the “Final dP/dtmin” value (isolated rat hearts; 1 nM) was −733 ± 68 mmHg/s and the “Infarct Size” value (isolated rat hearts; 1 nM) was 10 ± 2 %. The “Initial Coronary Flow” value (isolated rat hearts; 1 nM) was 18 ± 1 mL/min, the “Initial Heart Rate” value (isolated rat hearts; 1 nM) was 293 ± 13 BPM and the “Initial LVDP” value (isolated rat hearts; 1 nM) was 91 ± 4 mmHg. The “Initial LVEDP” value (isolated rat hearts; 1 nM) was 10 ± 1 mmHg, the “Initial LVESP” value (isolated rat hearts; 1 nM) was 101 ± 5 mmHg and the “Initial dP/dtmax” value (isolated rat hearts; 1 nM) was 2440 ± 72 mmHg/s. For the same molecule, the “Initial dP/dtmin” value (isolated rat hearts; 1 nM) was −1674 ± 106 mmHg/s, the “Final Coronary Flow” value (isolated rat hearts; 30 nM) was 9 ± 1 mL/min and the “Final Heart Rate” value (isolated rat hearts; 30 nM) was 261 ± 11 BPM. The “Final LVDP” value (isolated rat hearts; 30 nM) was 48 ± 10 mmHg, the “Final LVEDP” value (isolated rat hearts; 30 nM) was 50 ± 15 mmHg and the “Final LVESP” value (isolated rat hearts; 30 nM) was 108 ± 3 mmHg. The “Final dP/dtmax” value (isolated rat hearts; 30 nM) was 1059 ± 336 mmHg/s, the “Final dP/dtmin” value (isolated rat hearts; 30 nM) was −733 ± 99 mmHg/s and the “Infarct Size” value (isolated rat hearts; 30 nM) was 14 ± 2%. The “Initial Coronary Flow” value (isolated rat hearts; 30 nM) was 16 ± 1 mL/min, the “Initial Heart Rate” value (isolated rat hearts; 30 nM) was 271 ± 7 BPM and the “Initial LVDP” value (isolated rat hearts; 30 nM) was 88 ± 2 mmHg. For the same molecule, the “Initial LVEDP” value (isolated rat hearts; 30 nM) was 11 ± 1 mmHg, the “Initial LVESP” value (isolated rat hearts; 30 nM) was 99 ± 2 mmHg and the “Initial dP/dtmax” value (isolated rat hearts; 30 nM) was 2344 ± 22 mmHg/s. For the same molecule, the “Initial dP/dtmin” value (isolated rat hearts; 30 nM) was −1588 ± 18 mmHg/s, the “restoration of post-reperfused cardiac function compared to control I/R hearts” value (isolated rat hearts; 100 nM given at the beginning of reperfusion for 5 minutes, 25 to 50 min) was “significantly restored post-reperfused cardiac function” and the “Final Coronary Flow” value (isolated rat hearts; 100 nM) was 11 ± 2 mL/min. The “Final Heart Rate” value (isolated rat hearts; 100 nM) was 254 ± 12 BPM, the “Final LVDP” value (isolated rat hearts; 100 nM) was 66 ± 6 mmHg and the “Final LVEDP” value (isolated rat hearts; 100 nM) was 48 ± 13 mmHg. The “Final LVESP” value (isolated rat hearts; 100 nM) was 114 ± 11 mmHg, the “Final dP/dtmin” value (isolated rat hearts; 100 nM) was −981 ± 135 mmHg/s and the “Infarct Size” value (isolated rat hearts; 100 nM) was 8 ± 2 %. The “Initial Coronary Flow” value (isolated rat hearts; 100 nM) was 20 ± 2 mL/min, the “Initial Heart Rate” value (isolated rat hearts; 100 nM) was 301 ± 10 BPM and the “Initial LVDP” value (isolated rat hearts; 100 nM) was 89 ± 4 mmHg. The “Initial LVEDP” value (isolated rat hearts; 100 nM) was 9 ± 1 mmHg, the “Initial LVESP” value (isolated rat hearts; 100 nM) was 98 ± 3 mmHg and the “Initial dP/dtmax” value (isolated rat hearts; 100 nM) was 2528 ± 133 mmHg/s. For the same molecule, the “Initial dP/dtmin” value (isolated rat hearts; 100 nM) was −1807 ± 125 mmHg/s, the “Final Coronary Flow” value (isolated rat hearts; 1 μM) was 10 ± 3 mL/min and the “Final Heart Rate” value (isolated rat hearts; 1 μM) was 296 ± 86 BPM. For the same molecule, the “Final LVDP” value (isolated rat hearts; 1 μM) was 40 ± 15 mmHg, the “Final LVEDP” value (isolated rat hearts; 1 μM) was 60 ± 12 mmHg and the “Final LVESP” value (isolated rat hearts; 1 μM) was 101 ± 6 mmHg. The “Final dP/dtmax” value (isolated rat hearts; 1 μM) was 794 ± 220 mmHg/s, the “Final dP/dtmin” value (isolated rat hearts; 1 μM) was −616 ± 122 mmHg/s and the “Infarct Size” value (isolated rat hearts; 1 μM) was 5 ± 2 %. The “Initial Coronary Flow” value (isolated rat hearts; 1 μM) was 21 ± 1 mL/min, the “Initial Heart Rate” value (isolated rat hearts; 1 μM) was 274 ± 15 BPM and the “Initial LVDP” value (isolated rat hearts; 1 μM) was 94 ± 5 mmHg. For the same molecule, the “Initial LVEDP” value (isolated rat hearts; 1 μM) was 10 ± 2 mmHg, the “Initial LVESP” value (isolated rat hearts; 1 μM) was 104 ± 6 mmHg and the “Initial dP/dtmax” value (isolated rat hearts; 1 μM) was 2493 ± 128 mmHg/s. The “Initial dP/dtmin” value (isolated rat hearts; 1 μM) was −1786 ± 97 mmHg/s, the “cardio depressive effect on post-reperfused cardiac function compared to all other groups” value (isolated rat hearts; 10 μM) was “most cardio depressive effect” and the “reduction of infarct size compared to control I/R hearts” value (isolated rat hearts; 10 μM) was “reduced infarct size”. The “stunning concentration relative to the concentration needed to produce a 50% reduction in infarct size” value (isolated rat hearts; 10 μM) was 10,000 times, the “stunning of the heart during reperfusion” value (isolated rat hearts; 10 μM) was “caused stunning” and the “effect on reducing infarct size” value (isolated rat hearts; 10 μM and 1 μM) was “most robust effect on reducing infarct size”. For the same molecule, the “Final Coronary Flow” value (isolated rat hearts; 10 μM) was 0 mL/min, the “Final Heart Rate” value (isolated rat hearts; 10 μM) was 811 ± 79 BPM and the “Final LVDP” value (isolated rat hearts; 10 μM) was 1 ± 0.2 mmHg. The “Final LVEDP” value (isolated rat hearts; 10 μM) was 68 ± 17 mmHg, the “Final LVESP” value (isolated rat hearts; 10 μM) was 69 ± 17 mmHg and the “Final dP/dtmax” value (isolated rat hearts; 10 μM) was 54 ± 14 mmHg/s. The “Final dP/dtmin” value (isolated rat hearts; 10 μM) was −56 ± 14 mmHg/s, the “Infarct Size” value (isolated rat hearts; 10 μM) was 5 ± 2 % and the “Initial Coronary Flow” value (isolated rat hearts; 10 μM) was 18 ± 2 mL/min. The “Initial Heart Rate” value (isolated rat hearts; 10 μM) was 285 ± 24 BPM, the “Initial LVDP” value (isolated rat hearts; 10 μM) was 92 ± 3 mmHg and the “Initial LVEDP” value (isolated rat hearts; 10 μM) was 8 ± 2 mmHg. The “Initial LVESP” value (isolated rat hearts; 10 μM) was 101 ± 4 mmHg, the “Initial dP/dtmax” value (isolated rat hearts; 10 μM) was 2540 ± 158 mmHg/s and the “Initial dP/dtmin” value (isolated rat hearts; 10 μM) was −1772 ± 141 mmHg/s. For the same molecule, the “minimum effective concentration, tissue-salvaging effects (infarct size)” value (isolated rat hearts; ex vivo rat I/R hearts) was 1 nM and the “decrease in minimum effective concentration (increase in potency to reduce infarct size) as compared to Myr+PKCε−” value (isolated rat hearts; infarct size, FIG. 3) was 10,000 ×.
